Results published in patent publication US20250320497A1, “COMPOSITIONS AND METHODS FOR TREATING HEPATITIS B VIRUS (HBV) INFECTION AND HBV-ASSOCIATED DISEASES” (priority 2022, published 2025).

Legend:
[1] = test system: antigenic loop of HBsAg; test: Binding of HBC34 to HBsAg antigenic loop, genotypes and mutants; set-up: species or system HBV
Excerpt: (§1) In certain embodiments, the anti-HBV antibody is HBC34 or an engineered variant thereof. HBC34 are human antibodies against HBsAg with high neutralizing activity. […] The activity of HBC34, as measured diagnostically with an immunoassay, is 5000 IU/mg. As a comparison, the activity of HBIG is ˜1 IU/mg.

[2] = molecular target: HBsAg (Hepatitis B virus genotype D subtype ayw, UniProt P03138); test: Activity measured diagnostically with an immunoassay; format: binding
Excerpt: as §1

[3] = test system: HBV; test: Preclinical pharmacology of SIRNA01 against HBV
Excerpt: In some embodiments, the siRNA that targets HBV mRNA is SIRNA01. SIRNA01 is a synthetic, chemically modified siRNA targeting HBV RNA with a covalently attached triantennary N-acetyl-galactosamine (GalNAc) ligand that allows for specific uptake by hepatocytes. […] An SIRNA can have multiple antiviral effects, including degradation of the pgRNA, thus inhibiting viral replication, and degradation of all viral mRNA transcripts, thereby preventing expression of viral proteins. This may result in the return of a functional immune response directed against HBV, either alone or in combination with other therapies. The ability of SIRNA01 to reduce HBsAg-containing noninfectious subviral particles also distinguishes it from currently available treatments.
SIRNA01 targets and inhibits expression of an mRNA encoded by an HBV genome according to NCBI Reference Sequence NC_003977.2 (GenBank Accession No. GI:21326584) (SEQ ID NO:1). More specifically, SIRNA01 targets an mRNA encoded by a portion of the HBV genome comprising the sequence […] (SEQ ID NO:2), which corresponds to nucleotides 1579-1597 of SEQ ID NO:1. Because transcription of the HBV genome results in polycistronic, overlapping RNAs, SIRNA01 results in significant inhibition of expression of most or all HBV transcripts.

[4] = test system: chronic HBV infection; details: patients with chronic HBV infection; cited from earlier work
[5] = test system: chronic HBV infection; details: after 48 weeks of therapy; cited from earlier work
[6] = test system: chronic HBV infection; details: cited from earlier work
[7] = test system: chronic HBV infection; details: PEG-IFNα add-on therapy; cited from earlier work

HBC34: human antibody against HBsAg with high neutralizing activity; HC SEQ ID NO:56, LC SEQ ID NO:58
HBV genotypes and mutants recognized [1]: all 10 HBV genotypes and 18 mutants | affinity of binding to the antigenic loop of HBsAg [1]: pM range | activity, as measured diagnostically with an immunoassay [2]: 5000 IU/mg

SIRNA01: synthetic, chemically modified GalNAc-conjugated siRNA targeting HBV RNA; sense strand SEQ ID NO:5, antisense strand SEQ ID NO:6 (sense GUGUGCACUUCGCUUCACA; antisense UGUGAAGCGAAGUGCACACUU; GalNAc-conjugated, chemically modified, pattern not given here)
pharmacological activity against HBV genotypes [3]: pharmacologically active against HBV genotypes A through J | effect in preclinical models ([3]; preclinical models): inhibit viral replication, translation, and secretion of HBsAg | reduction in HBsAg when administered individually [4]: substantial reductions in HBsAg

peginterferon-alfa-2a [PEG-IFNα]
percentage of patients with long-term viral control [5]: < 10% | HBsAg loss, patients overall ([6]; PEG-IFNα 180 g administered weekly for 48-52 weeks, approximately): ≤ 10% | rate of HBsAg loss, subset with low baseline HBsAg ([6]; baseline HBsAg less than approximately 1,000-1,500 IU/mL, with or without an NRTI): 20-40% | mean HBsAg reduction at Week 24 [7]: 0.57 log10 IU/mL
